The text below walks through data of ChEMBL document CHEMBL1157802, “5-Functionalized indazoles as glucocorticoid receptor agonists” (Bioorg Med Chem Lett, 2010).

Molecules are shown by their SMILES. The source made the active and inactive calls. The rule behind the calls is not given here.

Data set [1] can be described thus: Inhibition of NMDA receptor at 1 uM.
In data set [2] the target is T1, Adenosine receptor A1 (Homo sapiens) (UniProt P30542).
T1 sequence (whole entry): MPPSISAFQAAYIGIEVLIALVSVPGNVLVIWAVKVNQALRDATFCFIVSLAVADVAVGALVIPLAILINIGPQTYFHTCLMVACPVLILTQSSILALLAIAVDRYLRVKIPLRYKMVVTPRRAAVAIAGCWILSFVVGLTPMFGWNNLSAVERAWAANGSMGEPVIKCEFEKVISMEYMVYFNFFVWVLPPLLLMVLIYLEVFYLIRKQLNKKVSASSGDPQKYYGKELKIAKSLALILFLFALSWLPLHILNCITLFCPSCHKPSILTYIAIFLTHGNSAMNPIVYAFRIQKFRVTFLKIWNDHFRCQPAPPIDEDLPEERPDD
Description: Inhibition of adenosine A1 receptor at 1 uM.

For data set [3], the target named is D(2) dopamine receptor (Homo sapiens) (UniProt P14416). Description: Inhibition of dopamine D2S receptor at 1 uM.
Data set [4] can be described thus: Inhibition of phencyclidine receptor at 1 uM.
In data set [5] the target is Prostaglandin E2 receptor EP4 subtype (Homo sapiens) (UniProt P35408). In words: Inhibition of prostanoid EP4 receptor at 1 uM.
Data set [6] is described as follows: Inhibition of nicotinic acetylcholine receptor at 1 uM.
Data set [7] can be described thus: Selectivity for human glucocorticoid receptor over androgen receptor.
Data set [8] can be described thus: Inhibition of ATP-sensitive potassium channel at 1 uM.
Data set [9] can be described thus: Selectivity for human glucocorticoid receptor over ERalpha.
For data set [10], the target named is Beta-1 adrenergic receptor (Homo sapiens) (UniProt P08588). In words: Inhibition of adrenergic beta-1 receptor at 1 uM.
Chain of Beta-1 adrenergic receptor (Homo sapiens) (P08588 whole entry, looked up): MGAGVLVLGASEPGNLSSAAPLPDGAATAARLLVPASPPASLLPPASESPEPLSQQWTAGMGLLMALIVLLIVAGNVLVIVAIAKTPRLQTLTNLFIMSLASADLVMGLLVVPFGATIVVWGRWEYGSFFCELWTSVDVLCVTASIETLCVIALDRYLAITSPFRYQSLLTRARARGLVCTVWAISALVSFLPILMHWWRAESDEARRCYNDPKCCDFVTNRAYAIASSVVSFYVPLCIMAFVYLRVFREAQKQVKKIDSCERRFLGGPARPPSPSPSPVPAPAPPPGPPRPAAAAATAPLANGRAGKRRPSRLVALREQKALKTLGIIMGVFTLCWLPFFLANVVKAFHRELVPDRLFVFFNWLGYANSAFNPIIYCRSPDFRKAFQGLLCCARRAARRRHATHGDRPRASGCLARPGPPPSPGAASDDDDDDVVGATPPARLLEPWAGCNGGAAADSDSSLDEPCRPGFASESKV
The target of data set [11] is Adenosine receptor A2a (Homo sapiens) (UniProt P29274). In words: Inhibition of adenosine A2A receptor at 1 uM.
Chain of Adenosine receptor A2a (Homo sapiens) (P29274 whole entry): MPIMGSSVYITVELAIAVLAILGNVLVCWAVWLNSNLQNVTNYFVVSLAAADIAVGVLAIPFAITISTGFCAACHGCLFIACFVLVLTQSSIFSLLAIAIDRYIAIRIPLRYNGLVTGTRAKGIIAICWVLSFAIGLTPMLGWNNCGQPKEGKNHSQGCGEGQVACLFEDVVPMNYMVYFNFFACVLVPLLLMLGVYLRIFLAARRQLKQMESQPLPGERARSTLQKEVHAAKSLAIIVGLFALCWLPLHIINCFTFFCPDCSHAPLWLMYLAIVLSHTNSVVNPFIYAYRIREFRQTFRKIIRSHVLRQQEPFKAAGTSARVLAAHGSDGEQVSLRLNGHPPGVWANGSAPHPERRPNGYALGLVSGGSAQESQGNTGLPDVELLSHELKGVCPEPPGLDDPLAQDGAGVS
Data set [12] addresses T2, Muscarinic acetylcholine receptor M2 (Homo sapiens) (UniProt P08172).
T2 sequence (whole entry): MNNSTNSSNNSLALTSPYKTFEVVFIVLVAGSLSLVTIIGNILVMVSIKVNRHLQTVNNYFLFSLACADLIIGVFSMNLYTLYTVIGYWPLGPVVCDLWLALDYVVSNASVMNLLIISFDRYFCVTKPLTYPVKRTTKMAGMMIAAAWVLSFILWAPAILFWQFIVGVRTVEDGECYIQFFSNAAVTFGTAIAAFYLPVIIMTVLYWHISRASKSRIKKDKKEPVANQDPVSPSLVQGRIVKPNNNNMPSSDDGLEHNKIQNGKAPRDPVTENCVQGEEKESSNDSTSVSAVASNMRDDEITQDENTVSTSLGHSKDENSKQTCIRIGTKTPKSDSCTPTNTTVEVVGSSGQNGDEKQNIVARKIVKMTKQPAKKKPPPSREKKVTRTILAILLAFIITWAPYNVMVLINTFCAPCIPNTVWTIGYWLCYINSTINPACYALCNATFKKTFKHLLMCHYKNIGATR
In words: Inhibition of muscarinic M2 receptor at 1 uM.

Data set [13] can be described thus: Inhibition of nicotinic bungarotoxin-sensitive acetylcholine receptor at 1 uM.
Data set [14] is described as follows: Inhibition of sigma 2 receptor at 1 uM.
Data set [15] deals with Sigma non-opioid intracellular receptor 1 (Homo sapiens) (UniProt Q99720). In words: Inhibition of sigma 1 receptor at 1 uM.
Chain of Sigma non-opioid intracellular receptor 1 (Homo sapiens) (Q99720 whole entry): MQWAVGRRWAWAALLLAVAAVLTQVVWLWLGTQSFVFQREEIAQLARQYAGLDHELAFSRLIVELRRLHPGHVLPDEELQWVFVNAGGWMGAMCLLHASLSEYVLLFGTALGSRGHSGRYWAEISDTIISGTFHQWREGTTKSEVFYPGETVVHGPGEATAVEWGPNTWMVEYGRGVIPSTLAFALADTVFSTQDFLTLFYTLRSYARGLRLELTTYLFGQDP
A short description of data set [16]: Inhibition of GABAA receptor agonist site at 1 uM. It counts as functional.
Data set [17] deals with T3, Alpha-2A adrenergic receptor (Homo sapiens) (UniProt P08913).
T3 sequence (whole entry): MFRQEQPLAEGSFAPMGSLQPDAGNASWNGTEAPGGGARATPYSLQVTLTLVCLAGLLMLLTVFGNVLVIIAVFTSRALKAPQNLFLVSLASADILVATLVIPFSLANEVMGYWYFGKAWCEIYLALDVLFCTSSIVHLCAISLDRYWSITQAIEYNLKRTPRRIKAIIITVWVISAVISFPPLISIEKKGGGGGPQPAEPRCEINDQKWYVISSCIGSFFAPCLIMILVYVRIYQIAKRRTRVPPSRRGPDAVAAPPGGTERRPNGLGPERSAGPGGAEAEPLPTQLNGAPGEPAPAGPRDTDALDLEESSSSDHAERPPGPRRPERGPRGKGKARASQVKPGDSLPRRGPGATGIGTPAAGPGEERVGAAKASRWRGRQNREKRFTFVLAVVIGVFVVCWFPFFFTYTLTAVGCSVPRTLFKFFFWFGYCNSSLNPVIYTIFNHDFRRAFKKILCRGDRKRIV
In words: Inhibition of adrenergic alpha2A receptor at 1 uM.

Data set [18] concerns the target Mu-type opioid receptor (Homo sapiens) (UniProt P35372). In words: Inhibition of mu opioid receptor at 1 uM.
Data set [19] in a line: Inhibition of phorbol ester site of PKC at 1 uM.
Data set [20] concerns the target D(1A) dopamine receptor (Homo sapiens) (UniProt P21728). Description: Inhibition of dopamine D1 receptor at 1 uM.
A short description of data set [21]: Inhibition of sodium channel site 2 at 1 uM.
Data set [22] deals with Muscarinic acetylcholine receptor M3 (Homo sapiens) (UniProt P20309). Description: Inhibition of muscarinic M3 receptor at 1 uM.
Chain of Muscarinic acetylcholine receptor M3 (Homo sapiens) (P20309 whole entry, looked up): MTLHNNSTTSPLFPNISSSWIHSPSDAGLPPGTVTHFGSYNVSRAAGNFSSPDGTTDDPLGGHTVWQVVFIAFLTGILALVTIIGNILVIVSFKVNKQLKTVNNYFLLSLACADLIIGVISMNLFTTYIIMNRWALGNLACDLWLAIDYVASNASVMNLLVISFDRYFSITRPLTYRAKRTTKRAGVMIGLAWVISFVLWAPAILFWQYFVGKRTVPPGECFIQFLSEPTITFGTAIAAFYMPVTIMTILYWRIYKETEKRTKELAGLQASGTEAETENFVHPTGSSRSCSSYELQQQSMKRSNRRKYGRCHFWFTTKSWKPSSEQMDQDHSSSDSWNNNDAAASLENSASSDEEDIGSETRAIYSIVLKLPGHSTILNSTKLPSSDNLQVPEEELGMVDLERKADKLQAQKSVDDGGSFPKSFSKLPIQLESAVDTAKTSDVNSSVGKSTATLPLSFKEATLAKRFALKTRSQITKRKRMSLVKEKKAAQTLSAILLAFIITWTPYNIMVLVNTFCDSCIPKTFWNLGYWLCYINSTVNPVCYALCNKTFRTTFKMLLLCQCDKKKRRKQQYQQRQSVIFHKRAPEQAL
Data set [23] has as its target Beta-2 adrenergic receptor (Homo sapiens) (UniProt P07550). In words: Inhibition of adrenergic beta2 receptor at 1 uM.
Data set [24] is described as follows: Inhibition of central benzodiazepine receptor at 1 uM.
In data set [25] the target is Sodium-dependent noradrenaline transporter (Homo sapiens) (UniProt P23975). In words: Inhibition of norepinephrine transporter at 1 uM.
Data set [26] in a line: Inhibition of calcium channel L type dihydropyridine binding site at 1 uM.
In data set [27] the test system is Mus musculus. In words: Antiinflammatory activity in mouse assessed as reduction of LPS-stimulated TNFalpha expression at 30 mg/kg relative to control. Type of data set: functional, organism-based. Also noted: dose 30 mg/kg.
Data set [28] can be described thus: Selectivity for human glucocorticoid receptor over ERbeta.
In data set [29] the target is Histamine H1 receptor (Homo sapiens) (UniProt P35367). In words: Inhibition of histamine H1 receptor at 1 uM.
Chain of Histamine H1 receptor (Homo sapiens) (P35367 whole entry): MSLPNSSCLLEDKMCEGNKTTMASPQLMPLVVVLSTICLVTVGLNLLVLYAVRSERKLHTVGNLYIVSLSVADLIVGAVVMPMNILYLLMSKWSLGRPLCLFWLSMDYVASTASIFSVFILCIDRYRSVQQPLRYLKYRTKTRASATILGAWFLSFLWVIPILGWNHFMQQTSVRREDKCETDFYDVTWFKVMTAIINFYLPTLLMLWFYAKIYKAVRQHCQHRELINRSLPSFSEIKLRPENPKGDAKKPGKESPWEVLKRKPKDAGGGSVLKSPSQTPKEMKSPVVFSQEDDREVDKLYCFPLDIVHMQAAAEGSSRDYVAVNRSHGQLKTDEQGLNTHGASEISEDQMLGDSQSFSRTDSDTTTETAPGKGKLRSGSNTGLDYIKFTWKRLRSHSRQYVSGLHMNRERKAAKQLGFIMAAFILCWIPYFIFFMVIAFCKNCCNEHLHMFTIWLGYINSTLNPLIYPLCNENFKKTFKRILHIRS
Data set [30] is described as follows: Selectivity for human glucocorticoid receptor over progesterone receptor.
Data set [31] concerns the target T4, Alpha-1B adrenergic receptor (Homo sapiens) (UniProt P35368).
T4 sequence (whole entry): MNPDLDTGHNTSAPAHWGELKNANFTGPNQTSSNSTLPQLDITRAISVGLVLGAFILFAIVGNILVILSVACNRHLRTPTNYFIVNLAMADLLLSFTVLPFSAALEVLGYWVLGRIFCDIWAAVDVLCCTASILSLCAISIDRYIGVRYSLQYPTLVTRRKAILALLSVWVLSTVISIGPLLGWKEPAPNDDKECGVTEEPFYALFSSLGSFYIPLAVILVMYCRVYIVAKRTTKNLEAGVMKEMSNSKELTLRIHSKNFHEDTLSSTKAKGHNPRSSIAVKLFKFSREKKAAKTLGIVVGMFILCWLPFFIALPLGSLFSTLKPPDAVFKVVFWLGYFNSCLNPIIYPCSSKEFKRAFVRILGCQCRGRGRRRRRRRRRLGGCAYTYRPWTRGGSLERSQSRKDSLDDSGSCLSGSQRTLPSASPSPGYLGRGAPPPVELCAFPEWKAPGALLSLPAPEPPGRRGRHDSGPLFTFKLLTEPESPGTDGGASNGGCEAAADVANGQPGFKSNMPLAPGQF
In words: Inhibition of adrenergic Alpha-1B receptor at 1 uM.

Data set [32] can be described thus: Inhibition of central imidazoline I2 receptor at 1 uM.
Data set [33] concerns the target T5, Alpha-1A adrenergic receptor (Homo sapiens) (UniProt P35348).
T5 sequence (whole entry): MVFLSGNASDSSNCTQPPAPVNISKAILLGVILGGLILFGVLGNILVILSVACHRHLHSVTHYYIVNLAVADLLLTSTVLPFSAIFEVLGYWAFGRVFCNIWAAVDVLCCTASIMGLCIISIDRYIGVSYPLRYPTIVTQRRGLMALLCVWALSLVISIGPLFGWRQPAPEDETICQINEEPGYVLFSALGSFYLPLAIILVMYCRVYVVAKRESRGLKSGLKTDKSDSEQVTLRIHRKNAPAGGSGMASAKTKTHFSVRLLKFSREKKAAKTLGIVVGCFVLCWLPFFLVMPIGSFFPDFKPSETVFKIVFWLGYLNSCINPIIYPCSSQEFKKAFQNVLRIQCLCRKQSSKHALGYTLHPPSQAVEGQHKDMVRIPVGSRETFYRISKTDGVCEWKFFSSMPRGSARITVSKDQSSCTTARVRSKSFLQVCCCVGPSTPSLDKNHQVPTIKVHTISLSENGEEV
In words: Inhibition of adrenergic alpha1A receptor at 1 uM.

Data set [34] can be described thus: Inhibition of rolipram binding site at 1 uM.
For data set [35], the target named is Voltage-gated inwardly rectifying potassium channel KCNH2 (Homo sapiens, UniProt Q12809). In words: Inhibition of human ERG by patch clamp method.
Chain of Voltage-gated inwardly rectifying potassium channel KCNH2 (Q12809 whole entry): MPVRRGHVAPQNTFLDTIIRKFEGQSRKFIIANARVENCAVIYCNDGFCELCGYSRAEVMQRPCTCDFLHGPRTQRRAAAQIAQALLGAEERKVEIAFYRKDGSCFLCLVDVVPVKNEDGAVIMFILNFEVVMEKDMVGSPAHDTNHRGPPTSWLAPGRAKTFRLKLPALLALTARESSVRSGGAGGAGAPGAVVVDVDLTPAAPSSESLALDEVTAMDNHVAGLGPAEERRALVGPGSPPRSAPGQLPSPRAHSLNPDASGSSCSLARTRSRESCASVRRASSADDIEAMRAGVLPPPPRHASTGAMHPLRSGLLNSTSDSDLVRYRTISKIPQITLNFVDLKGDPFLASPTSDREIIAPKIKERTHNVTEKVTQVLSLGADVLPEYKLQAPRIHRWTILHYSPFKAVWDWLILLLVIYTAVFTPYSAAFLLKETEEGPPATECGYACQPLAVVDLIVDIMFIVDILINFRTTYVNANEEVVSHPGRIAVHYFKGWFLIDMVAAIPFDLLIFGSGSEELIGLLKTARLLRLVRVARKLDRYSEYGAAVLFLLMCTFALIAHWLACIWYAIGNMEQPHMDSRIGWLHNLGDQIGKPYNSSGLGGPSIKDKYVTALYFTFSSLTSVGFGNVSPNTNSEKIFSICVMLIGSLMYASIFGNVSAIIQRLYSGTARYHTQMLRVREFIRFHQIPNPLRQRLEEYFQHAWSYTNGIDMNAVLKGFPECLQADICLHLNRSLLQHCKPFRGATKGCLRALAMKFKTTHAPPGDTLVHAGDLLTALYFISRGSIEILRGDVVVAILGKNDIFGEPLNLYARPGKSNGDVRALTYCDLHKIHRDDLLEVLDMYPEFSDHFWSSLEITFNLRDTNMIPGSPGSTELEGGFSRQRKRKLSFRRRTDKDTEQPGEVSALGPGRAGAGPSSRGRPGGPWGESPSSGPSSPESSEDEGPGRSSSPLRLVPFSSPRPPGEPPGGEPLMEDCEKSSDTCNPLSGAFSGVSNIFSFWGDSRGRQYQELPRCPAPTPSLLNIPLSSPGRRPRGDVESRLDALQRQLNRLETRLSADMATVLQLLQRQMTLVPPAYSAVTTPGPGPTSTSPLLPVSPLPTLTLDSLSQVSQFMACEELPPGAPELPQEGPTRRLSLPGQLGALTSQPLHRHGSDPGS
Data set [36] deals with Mus musculus. In words: Antiinflammatory activity in mouse assessed as reduction of LPS-stimulated TNFalpha expression at 6 mg/kg relative to control. It counts as functional. Also noted: scale not given: the % may be the effect or the level left.
The target in data set [37] is T6, Glucocorticoid receptor (Homo sapiens, UniProt P04150).
T6 sequence (P04150 whole entry): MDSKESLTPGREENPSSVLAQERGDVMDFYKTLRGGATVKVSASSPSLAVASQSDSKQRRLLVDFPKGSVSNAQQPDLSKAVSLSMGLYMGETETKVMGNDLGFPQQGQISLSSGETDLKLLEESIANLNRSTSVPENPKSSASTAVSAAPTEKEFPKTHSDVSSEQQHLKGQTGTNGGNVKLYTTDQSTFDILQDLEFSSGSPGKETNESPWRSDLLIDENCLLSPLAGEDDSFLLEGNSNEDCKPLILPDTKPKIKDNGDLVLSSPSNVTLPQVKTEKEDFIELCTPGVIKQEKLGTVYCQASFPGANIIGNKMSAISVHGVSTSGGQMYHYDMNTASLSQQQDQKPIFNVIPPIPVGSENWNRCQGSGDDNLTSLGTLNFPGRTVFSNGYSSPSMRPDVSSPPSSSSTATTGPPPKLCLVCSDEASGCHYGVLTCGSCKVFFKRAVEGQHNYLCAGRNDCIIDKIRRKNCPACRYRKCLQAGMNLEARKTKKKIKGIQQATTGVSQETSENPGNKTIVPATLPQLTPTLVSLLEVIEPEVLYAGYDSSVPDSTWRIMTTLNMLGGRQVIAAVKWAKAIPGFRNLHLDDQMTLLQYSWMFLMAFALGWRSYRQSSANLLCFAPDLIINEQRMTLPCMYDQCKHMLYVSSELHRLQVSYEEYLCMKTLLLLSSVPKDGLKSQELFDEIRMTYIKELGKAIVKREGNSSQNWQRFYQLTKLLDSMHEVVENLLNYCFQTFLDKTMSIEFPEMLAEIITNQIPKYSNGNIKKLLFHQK
Description: Binding affinity to human glucocorticoid receptor by fluorescence polarization competitive binding assay

Data set [38] concerns the target T6, Glucocorticoid receptor. Description: Agonist activity at glucocorticoid receptor in human MDA-kb2 cells transfected with MMTV-LUC assessed as induction of MMTV-LTR/promoter linked LUC gene by luciferase transactivation assay. To be noted: read-out: EC50. It counts as functional, cell-based.
In data set [39] the target is T6, Glucocorticoid receptor. In words: Agonist activity at glucocorticoid receptor in human fibroblast assessed as inhibition of IL-1-beta-induced IL6 production treated 1 hr before IL1-beta challenge measured after 24 hrs by transrepression assay. It counts as functional.
The test system of data set [40] is Mus musculus. In words: Antiinflammatory activity in mouse assessed as reduction of LPS-stimulated TNFalpha expression at 60 mg/kg relative to control. It counts as functional. Also noted: scale not given: the % may be the effect or the level left.
Data set [41] deals with Mus musculus. Description: Antiinflammatory activity in mouse assessed as reduction of LPS-stimulated TNFalpha expression at 3 mg/kg relative to control. More on the design: scale not given: the % may be the effect or the level left. It counts as functional.
For another data set, the target named is hERG (KCNH2) (Homo sapiens, UniProt Q12809). In words: Inhibition of human ERG at 1 uM.
Chain of hERG (KCNH2) (Q12809 whole entry): as the sequence (Q12809 whole entry) above

Chain of Mu-type opioid receptor (Homo sapiens) (P35372 whole entry): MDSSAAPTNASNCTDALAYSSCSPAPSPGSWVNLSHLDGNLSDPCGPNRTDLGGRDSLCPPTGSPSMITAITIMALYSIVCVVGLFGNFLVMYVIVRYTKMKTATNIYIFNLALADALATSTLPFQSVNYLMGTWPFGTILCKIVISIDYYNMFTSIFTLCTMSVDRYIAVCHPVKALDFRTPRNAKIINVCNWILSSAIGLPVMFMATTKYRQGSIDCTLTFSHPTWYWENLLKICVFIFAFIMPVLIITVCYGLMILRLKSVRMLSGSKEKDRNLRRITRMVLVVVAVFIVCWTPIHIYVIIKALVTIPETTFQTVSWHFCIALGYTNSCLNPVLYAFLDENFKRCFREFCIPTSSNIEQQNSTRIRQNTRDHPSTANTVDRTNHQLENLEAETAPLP

On to `OC(c1ccc2c(cnn2-c2ccc(F)cc2)c1)(c1cccc(Cl)c1Cl)C(F)(F)F` (single isomer, unassigned; (+)), for which the inhibition in [1], in [2], in data set [3], in data set [4], in data set [5] and in data set [6] was less than 50% each time. The inhibition in data set [8], in [10], in data set [11], in [12], in [13] and in [14] was less than 50% each time. The inhibition in data set [15], in [16], in [17], in data set [18], in [19] and in data set [20] was less than 50% throughout. For the same molecule, the inhibition in [21], in data set [22], in data set [23], in data set [24], in data set [25] and in data set [26] was less than 50% in each case. Besides, the inhibition in [29], in [31], in [32], in data set [33] and in data set [34] was less than 50% each time. In addition, the Ratio in data set [7], in data set [9], in data set [28] and in data set [30] was greater than 1000 each time. Further, the result in the data set on Mus musculus [27] was Active.
On to `OC(c1ccc2c(cnn2-c2ccc(F)cc2)c1)(c1cccc(Cl)c1Cl)C(F)(F)F` (single isomer, unassigned; (+)) [1-(2,3-DICHLOROPHENYL)-2,2,2-TRIFLUORO-1-(1-(4-FLUOROPHENYL)-1H-INDAZOL-5-YL)ETHANOL (ENANTIOMERIC MIX)], for which the IC50 in data set [35] was greater than 10000 nM; at Glucocorticoid receptor [37], 34 nM. Further, the Activity in the data set with Mus musculus [36] came out at 50%; in the data set with Mus musculus [40] it was 68%; with Mus musculus [41], 25%. For the same molecule, the concentration giving a half-maximal response (EC50) was 350 nM on Glucocorticoid receptor [38] and 19 nM at Glucocorticoid receptor [39]. Moreover, the inhibition at 1 µM against hERG (KCNH2) is less than 50%.
